Measured values reported in PMC10269561, “Absence of Clinically Meaningful Drug-Drug Interactions with Rezafungin: Outcome of Investigations” (Microbiology Spectrum, 2023).
Read-outs that look alike come from different tables or passages of the source.

Details: for AUC0–t, geometric LSM value, + rezafungin / AUC0–∞, geometric LSM value, + rezafungin / Cmax, geometric LSM value, + rezafungin / AUC0–t, geometric LSM value, alone / AUC0–∞, geometric LSM value, alone / Cmax, geometric LSM value, alone: Study 1, healthy subjects, plasma, LC-MS/MS, NCA; for Observation, Cmax (change with rezafungin relative to drug alone) / Observation, AUC (change with rezafungin relative to drug alone): class symbol; for AUC0–t, geometric mean ratio (drug + rezafungin / drug alone) / AUC0–∞, geometric mean ratio (drug + rezafungin / drug alone) / Cmax, geometric mean ratio (drug + rezafungin / drug alone): geometric LSM ratio x 100, ANOVA; for Change in exposure of the oral probe drug on coadministration of i.v. rezafungin vs dosing alone: 90% CIs of GMRs of Cmax, AUC0–t, AUC0–∞ within 80 to […]; for Observation, AUC (change with rezafungin relative to drug alone): AUC0–t and AUC0–∞ unless otherwise noted
Description: Both were phase 1, single-center, open-label, crossover inpatient studies that were conducted in the United States in healthy adults (study 1, aged 26 to 55 years; study 2, aged 21 to 59 years). The studies were compliant with the International Council for Harmonisation of Technical Requirements for Pharmaceuticals for Human Use E6 guideline for good clinical practice ([54]) and the Declaration of Helsinki. The study protocols were approved by the institutional review board associated with the study site, and all subjects provided written informed consent.
After screening, subjects were admitted to the clinical research unit (CRU) prior to the first dose of rezafungin (from day −22) and were discharged from the CRU on day 22. Nine oral substrate drugs were administered as part of a cocktail containing two or more drugs once before and once after receiving rezafungin on a schedule designed to allow the washout of the drugs in the cocktail between doses and limit interactions with other drugs (Fig. 4A). […] A loading dose of rezafungin for injection (600 mg) was administered over 1 h on day 1, followed by two once-weekly 400-mg doses over 1 h on days 10 and 15. Due to a short delay in the availability of the investigation study drug, the second once-weekly dose of rezafungin and the second set of oral substrate drugs were administered on day 10 instead of day 8, although the time between doses remained sufficient for all originally planned PK samplings through 96 h postdose and for the adequate washout of the substrate drugs. The total duration of treatment was up to 89 days, including 45 days of screening and 44 days of treatment in the CRU.
In study 1, predose PK blood samples were collected on each dosing day ≤60 min prior to the administration of the substrate drugs with or without rezafungin. Multiple blood samples were collected relative to each dose, with collection times ranging from 15 min to 168 h postdose, depending on the PK profile of each probe substrate drug (Table S5). For study 2, multiple blood samples were collected, and the timing of collection varied according to the PK profile of each coadministered drug from predose to 96 h postdose (Table S6). PK blood samples were collected for rezafungin at sample times ranging from predose to 168 h postdose.
For both studies, validated liquid chromatography-tandem mass spectrometry (LC-MS/MS) methods were used for PK assessments to analyze the concentrations of rezafungin and coadministered drugs. All plasma concentrations and actual blood sampling times were subjected to noncompartmental PK analysis. PK parameter calculations were performed using noncompartmental analysis (NCA) (Phoenix WinNonlin version 8.0 or higher). The PK parameters analyzed included Cmax; the time to reach the maximum observed plasma concentration (Tmax); AUC0–t (using the log-linear trapezoidal rule, where t was the last time point with a measurable concentration); AUC0–∞ (calculated as AUC0–t + Clast/λz); the AUC from 0 to 168 h (AUC0–168); the percentage of AUC0–∞ extrapolated (AUC%Extrap); the terminal elimination rate constant, determined by linear regression of the terminal linear segment of the log concentration-versus-time curve (λz); and the elimination half-life (t1/2), calculated as ln(2)/λz.
The primary analysis of the drug interaction effect on substrate drugs following rezafungin administration was assessed by the ratio of the geometric least-squares (LS) mean of each substrate drug administered with rezafungin to that without rezafungin. […] PK parameters were statistically analyzed using an analysis of variance (ANOVA) model. […] However, noncompliance with these no-effect boundaries was not considered evidence of a significant DDI. Statistical analyses were performed using SAS (version 9.4) and the mixed procedure. Adverse events were descriptively summarized.

[1] = oral repaglinide 1 mg with i.v. rezafungin 600 mg (day 1)
[2] = oral repaglinide 1 mg, metformin 500 mg, pitavastatin 2 mg, caffeine 100 mg, efavirenz 50 mg, midazolam 2 mg or digoxin 0.25 mg without rezafungin
[3] = Study 1, from geometric mean ratio
[4] = Study 1, rezafungin 600 mg i.v.
[5] = oral rosuvastatin 5 mg with i.v. rezafungin 400 mg (day 10)
[6] = oral tacrolimus 5 mg or rosuvastatin 5 mg without rezafungin
[7] = Study 1, AUC0–t and AUC0–∞, from geometric mean ratio
[8] = Study 1, rezafungin 400 mg i.v. (day 10 or 15)
[9] = oral metformin 500 mg, pitavastatin 2 mg (day 10) or caffeine 100 mg, efavirenz 50 mg, midazolam 2 mg, digoxin 0.25 mg (day 15) with i.v. rezafungin 400 mg
[10] = oral tacrolimus 5 mg with i.v. rezafungin 600 mg (day 1)

SMILES | AUC0–t, geometric LSM value, alone [2] | AUC0–∞, geometric LSM value, alone [2] | Cmax, geometric LSM value, alone [2] | Observation, Cmax (change with rezafungin relative to drug alone) (Study 1) | AUC0–t, geometric mean ratio (drug + rezafungin / drug alone) [8] | AUC0–∞, geometric mean ratio (drug + rezafungin / drug alone) [8] | Cmax, geometric mean ratio (drug + rezafungin / drug alone) [8] | Change in exposure of the oral probe drug on coadministration of i.v. rezafungin vs dosing alone (Study 1) | AUC0–t, geometric LSM value, + rezafungin [9] | AUC0–∞, geometric LSM value, + rezafungin [9] | Cmax, geometric LSM value, + rezafungin [9] | Observation, AUC (change with rezafungin relative to drug alone) (Study 1) | also measured
CCOc1cc(CC(=O)N[C@@H](CC(C)C)c2ccccc2N2CCCCC2)ccc1C(=O)O [Repaglinide] | 20.25 ng·h/mL | 21.74 ng·h/mL | 11.86 ng/mL | ↔ (no change (the ratio of the PK parameter value varied by up to ~10%, and the 90% CI was within 80 to 125%)) |  |  |  |  |  |  |  |  | AUC0–t, geometric LSM value, + rezafungin [1]: 23.47 ng·h/mL; AUC0–∞, geometric LSM value, + rezafungin [1]: 25.16 ng·h/mL; Cmax, geometric LSM value, + rezafungin [1]: 12.13 ng/mL; Magnitude of increase in AUC0–∞ with rezafungin vs drug alone [3]: ~16%; AUC0–t, geometric mean ratio (drug + rezafungin / drug alone) [4]: 115.87%; AUC0–∞, geometric mean ratio (drug + rezafungin / drug alone) [4]: 115.75%; Cmax, geometric mean ratio (drug + rezafungin / drug alone) [4]: 102.26%
CC(C)c1nc(N(C)S(C)(=O)=O)nc(-c2ccc(F)cc2)c1/C=C/[C@@H](O)C[C@@H](O)CC(=O)O [Rosuvastatin] |  |  |  |  | 115.13% | 113.55% | 111.82% |  |  |  |  |  | AUC0–t, geometric LSM value, + rezafungin [5]: 31,027.38 pg · h/mL; AUC0–∞, geometric LSM value, + rezafungin [5]: 32,386.11 pg · h/mL; Cmax, geometric LSM value, + rezafungin [5]: 3,683.66 pg/mL; AUC0–t, geometric LSM value, alone [6]: 26,949.43 pg · h/mL; AUC0–∞, geometric LSM value, alone [6]: 28,521.34 pg · h/mL; Cmax, geometric LSM value, alone [6]: 3,294.35 pg/mL; Magnitude of increase in AUC with rezafungin vs drug alone [7]: ~15%; Magnitude of increase in AUC0–∞ with rezafungin vs drug alone [3]: approximately 14%; Magnitude of increase in Cmax with rezafungin vs drug alone [3]: ~12%
C[C@H]1O[C@@H](O[C@H]2[C@@H](O)C[C@H](O[C@H]3[C@@H](O)C[C@H](O[C@H]4CC[C@@]5(C)[C@H](CC[C@@H]6[C@@H]5C[C@@H](O)[C@]5(C)[C@@H](C7=CC(=O)OC7)CC[C@]65O)C4)O[C@@H]3C)O[C@@H]2C)C[C@H](O)[C@@H]1O [Digoxin] |  |  |  |  |  |  |  | did not result in statistically significant changes |  |  |  |  | 
O=C1Nc2ccc(Cl)cc2[C@@](C#CC2CC2)(C(F)(F)F)O1 [Efavirenz] | 7,557.26 ng · h/mL | 14,368.15 ng · h/mL | 299.30 ng/mL | ↔ (no change (the ratio of the PK parameter value varied by up to ~10%, and the 90% CI was within 80 to 125%)) | 101.87% | 112.44% | 100.29% | did not result in statistically significant changes | 7,698.46 ng · h/mL | 16,156.14 ng · h/mL | 300.17 ng/mL | ↔ (no change (the ratio of the PK parameter value varied by up to ~10%, and the 90% CI was within 80 to 125%)) | 
CN(C)C(=N)N=C(N)N [Metformin] | 7,333.63 ng · h/mL | 7,446.67 ng · h/mL | 1,074.27 ng/mL | ↔ (no change (the ratio of the PK parameter value varied by up to ~10%, and the 90% CI was within 80 to 125%)) | 98.96% | 99.02% | 103.88% | did not result in statistically significant changes | 7,257.55 ng · h/mL | 7,373.31 ng · h/mL | 1,115.98 ng/mL | ↔ (no change (the ratio of the PK parameter value varied by up to ~10%, and the 90% CI was within 80 to 125%)) | 
C=CC[C@@H]1/C=C(\C)C[C@H](C)C[C@H](OC)[C@H]2O[C@@](O)(C(=O)C(=O)N3CCCC[C@H]3C(=O)O[C@H](/C(C)=C/[C@@H]3CC[C@@H](O)[C@H](OC)C3)[C@H](C)[C@@H](O)CC1=O)[C@H](C)C[C@@H]2OC [Tacrolimus] |  |  |  | ↔ (no change (the ratio of the PK parameter value varied by up to ~10%, and the 90% CI was within 80 to 125%)) |  |  |  |  |  |  |  |  | AUC0–t, geometric LSM value, alone [6]: 309,698.20 pg · h/mL; AUC0–∞, geometric LSM value, alone [6]: 328,990.49 pg · h/mL; Cmax, geometric LSM value, alone [6]: 30,489.62 pg/mL; AUC0–t, geometric LSM value, + rezafungin [10]: 266,002.13 pg · h/mL; AUC0–∞, geometric LSM value, + rezafungin [10]: 283,328.47 pg · h/mL; Cmax, geometric LSM value, + rezafungin [10]: 28,909.40 pg/mL; Magnitude of decrease in AUC with rezafungin vs drug alone [7]: ~14%; AUC0–t, geometric mean ratio (drug + rezafungin / drug alone) [4]: 85.89%; AUC0–∞, geometric mean ratio (drug + rezafungin / drug alone) [4]: 86.12%; Cmax, geometric mean ratio (drug + rezafungin / drug alone) [4]: 94.82%
Cn1c(=O)c2c(ncn2C)n(C)c1=O [Caffeine] | 17,230.22 ng · h/mL | 18,897.70 ng · h/mL | 2,075.44 ng/mL | ↔ (no change (the ratio of the PK parameter value varied by up to ~10%, and the 90% CI was within 80 to 125%)) | 107.23% | 110.35% | 107.59% | did not result in statistically significant changes | 18,475.36 ng · h/mL | 20,853.11 ng · h/mL | 2,232.88 ng/mL | ↔ (no change (the ratio of the PK parameter value varied by up to ~10%, and the 90% CI was within 80 to 125%)) | 
O=C(O)C[C@H](O)C[C@H](O)/C=C/c1c(C2CC2)nc2ccccc2c1-c1ccc(F)cc1 [Pitavastatin] | 77.44 ng·h/mL | 85.78 ng·h/mL | 36.23 ng/mL | ↔ (no change (the ratio of the PK parameter value varied by up to ~10%, and the 90% CI was within 80 to 125%)) | 105.30% | 105.93% | 98.59% | did not result in statistically significant changes | 81.54 ng·h/mL | 90.87 ng·h/mL | 35.72 ng/mL | ↔ (no change (the ratio of the PK parameter value varied by up to ~10%, and the 90% CI was within 80 to 125%)) | 
